Tested on: CAGA-TGF-β activity reporter cells
Experiment: Test using TGF-β activity reporter cell (luciferase test)
Assay type: cell-based
Conditions: added alone: TGF-β 50 ng/ml, pro-TGF-β1 200 ng/ml, overnight, FIG. 6
Method: Method: CAGA-TGF-β activity reporter cells were plated (12-well plate) until the confluence reached 65%. Samples and reagents were added to different wells, respectively. The grouping and concentration were as follows. Group 1:2 ml of TGF-β (50 ng/ml); Group 2:2 ml of pro-TGF-β1 (200 ng/ml); Group 3:2 ml of LLC (200 ng/ml)+S-HA-9 (20 ug/ml); Group 4:2 ml of LLC (200 ng/ml)+PBS (1×); Group 5:2 ml of LLC (200 ng/ml)+S-HA-PBA-1 (20 ug/ml), the cells were stimulated overnight, the samples were collected, and cell lysate was obtained for luciferase test.

Row | Substance | production of active TGF-β (reporter control groups)
1 | TGF-β: transforming growth factor-β, control group 1 of the reporter cell test (50 ng/ml) | stimulated the production of active TGF-β
2 | proTGF-β: pro-TGF-β1, control group 2 of the reporter cell test (200 ng/ml) | stimulated the production of a very small amount of active TGF-β
